Where two headings read alike, the source gives them in different places.
Columns and labels:
[1] = tested on: four cancer cells (KB, HeLa S3, MCF-7, and Hep G2); experiment: MTT cytotoxicity, four cancer cells stated together; type: cell-based; conditions: Homo sapiens; range over KB, HeLa S3, MCF-7, Hep G2; read-out: IC50 values against four cancer cells
Method: (§1) The cytotoxic activity of the isolated compounds was evaluated using the MTT viability assay with doxorubicin as the positive control and the results are presented in Table 2.
(§2) The MTT colorimetric method was performed to evaluate cytotoxic activity of the isolated compounds against human epidermoid carcinoma (KB; ATCC CCL17), human cervical carcinoma (HeLa S3; ATCC CCL2-2), human colon adenocarcinoma (HT-29; ATCC HTB-38), human breast adenocarcinoma (MCF-7; ATCC HTB-22), and human hepatocellular carcinoma (Hep G2; ATCC HB-8065) cell lines according to the previous method. […] After centrifugation at 1400 rpm for 5 min at 4 °C, the supernatant was decanted and DMSO (100 µL/well) was added to allow formazan product solubilization, which was subsequently measured by a microplate reader (Tecan Trading AG, Switzerland) at wavelength 550 nm. […] The results are expressed as the mean values of three replicates for three independent experiments. IC50 values were determined by graphical analysis using SigmaPlot 10 (Systat Software Inc., San Jose, CA, USA), obtained by plotting the cell viability percentage versus sample concentration.

[2] = target: T1, COX-2 (human recombinant PGHS-2) (Homo sapiens, UniProt P35354); experiment: COX-2 enzyme inhibition assay (PGE2 ELISA); type: biochemical; conditions: mean ± SD (n = 4)
T1 construct: purchased Cayman Chemical Co., Ann Arbor, MI, USA
T1 sequence (P35354 18-604): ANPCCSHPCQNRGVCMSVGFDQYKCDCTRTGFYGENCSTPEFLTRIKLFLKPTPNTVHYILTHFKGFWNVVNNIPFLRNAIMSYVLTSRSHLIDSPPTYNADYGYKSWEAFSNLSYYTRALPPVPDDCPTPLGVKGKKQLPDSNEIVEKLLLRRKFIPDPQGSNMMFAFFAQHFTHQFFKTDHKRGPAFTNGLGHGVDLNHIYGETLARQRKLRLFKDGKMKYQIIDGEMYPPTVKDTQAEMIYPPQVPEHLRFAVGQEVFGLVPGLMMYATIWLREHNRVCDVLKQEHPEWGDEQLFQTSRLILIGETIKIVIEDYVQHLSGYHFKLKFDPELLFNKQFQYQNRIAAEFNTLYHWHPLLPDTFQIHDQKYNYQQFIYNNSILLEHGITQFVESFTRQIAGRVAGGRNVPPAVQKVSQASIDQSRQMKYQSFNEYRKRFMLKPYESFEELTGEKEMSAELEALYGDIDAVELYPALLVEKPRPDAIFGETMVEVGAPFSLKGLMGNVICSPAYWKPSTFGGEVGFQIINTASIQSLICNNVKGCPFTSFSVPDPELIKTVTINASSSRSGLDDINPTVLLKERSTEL
Method: The anti-inflammatory effects of the isolated compounds were also screened on COX-1 and COX-2 enzymes inhibition at a final concentration of 20 µM.
Purified PGHS-1 from ram seminal vesicles for COX-1 and human recombinant PGHS-2 for COX-2 (Cayman Chemical Co., Ann Arbor, MI, USA) were used for the COX inhibition assays. Experiments were performed in a 96-well plate format, as previously described. Briefly, the incubation mixture contained 180 µL of 0.1 M TRIS/HCl-buffer pH 8.0 (Roth, Karlsruhe, Germany), 50 µM Na2EDTA (only for COX-2, Titriplex III, Merck, Darmstadt, Germany), 18 mM L-epinepherine bitartrate (Fluka, Buchs, Switzerland), 5 µM porcine hematin (MP Biomedicals LLC, Solon, OH, USA), and COX-1 or COX-2 enzymes (0.2 U/well). Ten microliters of tested compounds (dissolved in DMSO with a final concentration of 20 µM) was added and the mixture was pre-incubated for 5 min at room temperature. Thereafter, 10 µL of 5 µM arachidonic acid (Ann Arbor, Michigan USA) was added to the mixture and incubated for 20 min at 37 °C. The reaction was subsequently stopped by adding 10 µL of 10% (v/v) formic acid. The concentration of PGE2 generated in the reaction was quantitatively measured by a competitive PGE2 ELISA kit (Enzo Life Sciences Inc., Farmingdale, NY, USA) according to the manufacturer’s protocol and previous procedure. The absorbance at 405 nm was measured using a Hidex Sense Microplate Reader (Hidex, Turku, Finland). […] The assays were performed in duplicates and repeated in two independent experiments.

[3] = tested on: HeLa S3 (human cervical carcinoma); experiment: MTT cytotoxic activity assay, HeLa S3; type: cell-based; conditions: 72 h, mean ± SEM of three replicates
Method: as §1
(§3) The MTT colorimetric method was performed to evaluate cytotoxic activity of the isolated compounds against human epidermoid carcinoma (KB; ATCC CCL17), human cervical carcinoma (HeLa S3; ATCC CCL2-2), human colon adenocarcinoma (HT-29; ATCC HTB-38), human breast adenocarcinoma (MCF-7; ATCC HTB-22), and human hepatocellular carcinoma (Hep G2; ATCC HB-8065) cell lines according to the previous method. The cancer cells were cultured in MEM containing 10% fetal bovine serum in the presence of 100 U/mL penicillin and 100 μg/mL streptomycin sulphate (Gibco, Rockville, MD, USA), seeded in a 96-well plate (3000 cells/well), and pre-incubated at 37 °C for 24 h in a 5% CO2 humidified atmosphere. The tested compounds with serial concentrations (0.3–100 μM) were added and incubated for a further 72 h in the same condition. At the end of treatment, 20 µL of MTT solution (5 mg/mL in PBS, Sigma, St. Louis, MI, USA) was added to each well and further incubated for 3 h. After centrifugation at 1400 rpm for 5 min at 4 °C, the supernatant was decanted and DMSO (100 µL/well) was added to allow formazan product solubilization, which was subsequently measured by a microplate reader (Tecan Trading AG, Switzerland) at wavelength 550 nm. Control cells were treated with 0.1% DMSO. Doxorubicin (tested concentrations: 0.01–3.0 μM, Sigma) was used as the positive control. The results are expressed as the mean values of three replicates for three independent experiments. IC50 values were determined by graphical analysis using SigmaPlot 10 (Systat Software Inc., San Jose, CA, USA), obtained by plotting the cell viability percentage versus sample concentration.

[4] = tested on: MCF-7 (human breast adenocarcinoma); experiment: MTT cytotoxic activity assay, MCF-7; type: cell-based; conditions: MCF7, 72 h, mean ± SEM of three replicates
Method: as §1, §2

[5] = tested on: KB (human epidermoid carcinoma); experiment: MTT cytotoxic activity assay, KB; type: cell-based; conditions: 72 h, mean ± SEM of three replicates
Method: as §1, §3

[6] = tested on: Hep G2 (human hepatocellular carcinoma); experiment: MTT cytotoxic activity assay, Hep G2; type: cell-based; conditions: HepG2, 72 h, mean ± SEM of three replicates
Method: as §1, §2

[7] = tested on: HT-29 (human colon adenocarcinoma); experiment: MTT cytotoxic activity assay, HT-29; type: cell-based; conditions: 72 h, mean ± SEM of three replicates
Method: as §1, §2

[8] = tested on: Hep G2 (human hepatocellular carcinoma); set-up: method as in PMID 30153471, PMID 33999337; conditions: MTT; results based on previous work; read-out: IC50 ± SEM, Hep G2; cited from earlier work
[9] = tested on: four cancer cells (KB, HeLa S3, MCF-7, and Hep G2); conditions: HeLa S3, MCF-7, Hep G2, earlier studies, read-out: IC50 values against four cancer cells; cited from earlier work
[10] = tested on: HeLa S3 (human cervical carcinoma); set-up: method as in PMID 30153471, PMID 33999337; conditions: MTT; results based on previous work; read-out: IC50 ± SEM, HeLa S3; cited from earlier work
[11] = tested on: KB (human epidermoid carcinoma); set-up: method as in PMID 30153471, PMID 33999337; conditions: MTT; results based on previous work; read-out: IC50 ± SEM, KB; cited from earlier work

In the case of `C[C@H]1Oc2c(c(O)c3c(=O)c4ccc(O)c(O)c4oc3c2CCC(C)(C)O)C1(C)C` [Compound 4, gerontoxanthone C hydrate], the IC50 [1] is reported as 5.6 to 7.5 µM, the inhibition at 20 µM [2] is reported as < 10% and the IC50 [3] is reported as 5.6 ± 0.1 µM. For the same compound, the IC50 [4] was 5.7 ± 0.3 µM, the IC50 [5] was 7.5 ± 0.8 µM and the IC50 [6] was 6.3 ± 0.6 µM. The IC50 [7] was 20.3 ± 0.6 µM.
For `C[C@@H]1Oc2cc(O)c3c(=O)c4ccc(O)c(O)c4oc3c2C1(C)C` [Compound 7, 2-deprenylrheediaxanthone B], the IC50 [8] is listed as 10 ± 0.2 µM, the inhibition at 20 µM [2] is listed as < 10% and the IC50 [9] is listed as < 10 µM. The IC50 [10] was 6 ± 0.5 µM and the IC50 [11] was 5.1 ± 0.4 µM.

Reference: article PMC8587515, “Cytotoxic and Anti-Inflammatory Activities of Dihydroisocoumarin and Xanthone Derivatives from Garcinia picrorhiza” (Molecules, 2021)
